Measurements taken from ChEMBL document CHEMBL1201862, “PubChem BioAssay data set” (2004).
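Tested at 5 concentrations; 48 h exposure; 96-well plates; endpoints linearly interpolated, else capped at highest concentration. GI50 marks 50% less growth.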 Activity calls are given as the source filed them. Rule as the data show it: active = GI50 up to about 1.1 µM and inactive = higher.

Tests used:
Experiment in all cases: inhibition of tumour cell growth, NCI panel, 48 h
ACHN = tested on: ACHN
BT-549 = tested on: BT-549
HCC 2998 = tested on: HCC 2998
HT-29 = tested on: HT-29
K562 = tested on: K562
KM12 = tested on: KM12
MDA-MB-231 = tested on: MDA-MB-231
MDA-MB-435 = tested on: MDA-MB-435
NCI-H226 = tested on: NCI-H226
NCI/ADR-RES = tested on: NCI/ADR-RES
OVCAR-8 = tested on: OVCAR-8
PC-3 = tested on: PC-3
RPMI-8226 = tested on: RPMI-8226
RXF 393 = tested on: RXF 393
SK-MEL-28 = tested on: SK-MEL-28
SNB-19 = tested on: SNB-19
TK-10 = tested on: TK-10
U-251 = tested on: U-251
UACC-257 = tested on: UACC-257
UACC-62 = tested on: UACC-62

Compound	GI50 (ACHN)	GI50 (BT-549)	GI50 (HCC 2998)	GI50 (HT-29)	GI50 (K562)	GI50 (KM12)	GI50 (MDA-MB-231)	GI50 (MDA-MB-435)	GI50 (NCI-H226)	GI50 (NCI/ADR-RES)	GI50 (OVCAR-8)	GI50 (PC-3)	GI50 (RPMI-8226)	GI50 (RXF 393)	GI50 (SK-MEL-28)	GI50 (SNB-19)	GI50 (TK-10)	GI50 (U-251)	GI50 (UACC-257)	GI50 (UACC-62)
CC1=NN=C(C)C1/N=N/c1ccc2[nH]c(C)nc2c1	7.46 µM (inactive)	20.8 µM (inactive)	58.7 µM (inactive)	16 µM (inactive)	> 69.2 µM (inactive)	35.4 µM (inactive)	28.6 µM (inactive)	16.2 µM (inactive)	3.84 µM (inactive)	38.4 µM (inactive)	15.9 µM (inactive)	27.7 µM (inactive)	13.7 µM (inactive)	5.16 µM (inactive)	35.6 µM (inactive)	> 100 µM (inactive)	14.1 µM (inactive)	34.6 µM (inactive)	47.6 µM (inactive)	14.9 µM (inactive)
C[C@]12CC[C@H]3[C@@H](CC=C4C[C@@H](O)CC[C@@]43C)[C@@H]1CC[C@@H]2N(CCO)CCO	30.7 µM (inactive)	> 100 µM (inactive)	27 µM (inactive)	29 µM (inactive)	71.9 µM (inactive)	54.5 µM (inactive)	> 100 µM (inactive)	85.9 µM (inactive)	> 100 µM (inactive)	> 100 µM (inactive)	88.5 µM (inactive)	50.9 µM (inactive)	> 100 µM (inactive)	36.1 µM (inactive)	96.2 µM (inactive)	68.1 µM (inactive)	42.3 µM (inactive)	59.8 µM (inactive)	52.6 µM (inactive)	35.3 µM (inactive)
C=CCCCCOC1C=CC(OC(C)=O)C(COC(C)=O)O1 (stereo not given)	> 100 µM (inactive)	> 100 µM (inactive)	> 100 µM (inactive)	> 100 µM (inactive)	> 10 µM (inactive)	> 100 µM (inactive)	> 100 µM (inactive)	> 100 µM (inactive)	> 100 µM (inactive)	> 100 µM (inactive)	> 100 µM (inactive)	> 100 µM (inactive)	> 100 µM (inactive)	> 100 µM (inactive)	> 100 µM (inactive)	> 100 µM (inactive)	> 100 µM (inactive)	> 100 µM (inactive)	> 100 µM (inactive)	> 100 µM (inactive)
NC(=S)N/N=C1\CCc2ccccc2C1	> 100 µM (inactive)	> 100 µM (inactive)	> 100 µM (inactive)	> 100 µM (inactive)	> 100 µM (inactive)	> 100 µM (inactive)	> 100 µM (inactive)	> 100 µM (inactive)	32.2 µM (inactive)	> 100 µM (inactive)	> 100 µM (inactive)	> 100 µM (inactive)	> 100 µM (inactive)	80.4 µM (inactive)	> 100 µM (inactive)	> 100 µM (inactive)	> 100 µM (inactive)	> 100 µM (inactive)	> 100 µM (inactive)	55 µM (inactive)
C(=N\NC1=NCCCN1)/c1ccc(-c2cn3cc(/C=N/NC4=NCCCN4)ccc3n2)cc1	42 µM (inactive)	> 100 µM (inactive)	> 53.3 µM (inactive)	29.3 µM (inactive)	38.4 µM (inactive)	> 58.1 µM (inactive)	> 72.6 µM (inactive)	> 100 µM (inactive)	45.3 µM (inactive)	> 100 µM (inactive)	> 50.2 µM (inactive)	> 40.1 µM (inactive)	> 27.9 µM (inactive)	61.1 µM (inactive)	> 100 µM (inactive)	> 100 µM (inactive)	> 100 µM (inactive)	> 88.9 µM (inactive)	> 100 µM (inactive)	> 100 µM (inactive)
CCN(CC)Cc1nc(C2CCC([N+](=O)[O-])O2)no1 (stereo not given)	98.2 µM (inactive)	23.3 µM (inactive)	20.6 µM (inactive)	17 µM (inactive)	36.2 µM (inactive)	26.5 µM (inactive)	26.7 µM (inactive)	18.1 µM (inactive)	67.8 µM (inactive)	26.7 µM (inactive)	30.1 µM (inactive)	27.3 µM (inactive)	31.3 µM (inactive)	31 µM (inactive)	20.3 µM (inactive)	28.6 µM (inactive)	> 100 µM (inactive)	28.5 µM (inactive)	19.9 µM (inactive)	14.8 µM (inactive)
CC1=NC(=Cc2cc(Br)cc(Br)c2)C(=O)N1n1c(-c2ccccc2)nc2ccccc2c1=O	> 100 µM (inactive)	> 100 µM (inactive)	> 100 µM (inactive)	> 100 µM (inactive)	> 100 µM (inactive)	> 100 µM (inactive)	> 100 µM (inactive)	72.3 µM (inactive)	> 100 µM (inactive)	> 100 µM (inactive)	> 100 µM (inactive)	> 100 µM (inactive)	> 100 µM (inactive)	> 100 µM (inactive)	> 100 µM (inactive)	> 100 µM (inactive)	> 100 µM (inactive)	> 100 µM (inactive)	> 100 µM (inactive)	> 100 µM (inactive)
COc1ccc2[nH]c3c(C)c4ccnc(NCCCN(C)CCCNC(=O)NCCCN(C)CCCNc5nccc6c(C)c7[nH]c8ccc(OC)cc8c7c(C)c56)c4c(C)c3c2c1	0.352 µM (active)	1.62 µM (inactive)	0.265 µM (active)	0.245 µM (active)	0.23 µM (active)	1.03 µM (active)	0.403 µM (active)	0.466 µM (active)	0.526 µM (active)	2.14 µM (inactive)	0.638 µM (active)	0.92 µM (active)	0.564 µM (active)	0.369 µM (active)	1.48 µM (inactive)	0.264 µM (active)	1.48 µM (inactive)	0.205 µM (active)	1.6 µM (inactive)	1.33 µM (inactive)
Cc1cccc(C2ON=C(c3ccccc3)N2C23CC4CC(CC(C4)C2)C3)c1 (stereo not given)	> 10 µM (inactive)	> 10 µM (inactive)	> 10 µM (inactive)	> 10 µM (inactive)	> 10 µM (inactive)	> 10 µM (inactive)	> 10 µM (inactive)	> 10 µM (inactive)	> 10 µM (inactive)	> 10 µM (inactive)	> 10 µM (inactive)	> 10 µM (inactive)	> 10 µM (inactive)	> 10 µM (inactive)	> 10 µM (inactive)	> 10 µM (inactive)	> 10 µM (inactive)	> 10 µM (inactive)	> 10 µM (inactive)	> 10 µM (inactive)
CC(C)(C)[Si](C)(C)OCC#C[C@@]1(O)CCCCC1CC(Sc1ccccc1)Sc1ccccc1 (stereo not given in full)	14.4 µM (inactive)	19 µM (inactive)	15.6 µM (inactive)	14 µM (inactive)	14.2 µM (inactive)	21.9 µM (inactive)	16.9 µM (inactive)	15.7 µM (inactive)	15.3 µM (inactive)	15 µM (inactive)	16.5 µM (inactive)	13.5 µM (inactive)	15.3 µM (inactive)	12.5 µM (inactive)	16.3 µM (inactive)	15.4 µM (inactive)	17.9 µM (inactive)	13.3 µM (inactive)	15.5 µM (inactive)	12.9 µM (inactive)
COc1ccc(CNC(=O)[C@H](Cc2ccc(O)cn2)NC(C)=O)cc1OC	> 100 µM (inactive)	> 100 µM (inactive)	> 100 µM (inactive)	> 100 µM (inactive)	> 100 µM (inactive)	> 100 µM (inactive)	> 100 µM (inactive)	> 100 µM (inactive)	> 100 µM (inactive)	> 100 µM (inactive)	> 100 µM (inactive)	> 100 µM (inactive)	> 100 µM (inactive)	> 100 µM (inactive)	> 100 µM (inactive)	> 100 µM (inactive)	> 100 µM (inactive)	> 100 µM (inactive)	> 100 µM (inactive)	> 100 µM (inactive)
O=C(NO)c1ccc(OCc2ccccc2)cc1	22.3 µM (inactive)	26.5 µM (inactive)	22.6 µM (inactive)	29.2 µM (inactive)	37.7 µM (inactive)	25.5 µM (inactive)	26.8 µM (inactive)	29.2 µM (inactive)	> 100 µM (inactive)	4 µM (inactive)	6.71 µM (inactive)	23.3 µM (inactive)	12 µM (inactive)	26.7 µM (inactive)	28.1 µM (inactive)	33.3 µM (inactive)	23.7 µM (inactive)	27.5 µM (inactive)	29.4 µM (inactive)	14.9 µM (inactive)
Cc1nnc(N)nc1/C=C/c1c(O)ccc2ccccc12	13.1 µM (inactive)	37.9 µM (inactive)	19.1 µM (inactive)	27 µM (inactive)	38.5 µM (inactive)	34.5 µM (inactive)	> 100 µM (inactive)	24.7 µM (inactive)	21.5 µM (inactive)	30.8 µM (inactive)	35.2 µM (inactive)	22.8 µM (inactive)	30.5 µM (inactive)	15.6 µM (inactive)	29.7 µM (inactive)	27 µM (inactive)	54.8 µM (inactive)	38.7 µM (inactive)	32.2 µM (inactive)	21.5 µM (inactive)
COc1cc(OCc2nc3cc(C(F)(F)F)ccc3nc2-c2ccccc2)cc(OC)c1OC	> 100 µM (inactive)	> 100 µM (inactive)	> 100 µM (inactive)	> 100 µM (inactive)	61.9 µM (inactive)	> 100 µM (inactive)	> 100 µM (inactive)	> 100 µM (inactive)	> 100 µM (inactive)	61.2 µM (inactive)	64.3 µM (inactive)	98.9 µM (inactive)	15.5 µM (inactive)	19.5 µM (inactive)	65.3 µM (inactive)	94.6 µM (inactive)	70.3 µM (inactive)	39.6 µM (inactive)	> 100 µM (inactive)	61.4 µM (inactive)
